According to US7214694B2, “3-ox(adi)azolylpropanohydroxamic acids useful as procollagen C-proteinase inhibitors” (Pfizer Inc, priority 2001, dated 2007):
Read-outs that look alike come from different tables or passages of the source.

Experiments:
human PCP = target: T1, human PCP (Homo sapiens, UniProt P13497); assay: fluorogenic PCP cleavage assay (PCP inhibition); type: biochemical; settings: fluorogenic substrate 3×10^−6 M, pH 7.6, 37° C.
T1 construct: made in house; host or cells: CHO cells (stably transfected), purified from the supernatant
T1 sequence (P13497 121-986): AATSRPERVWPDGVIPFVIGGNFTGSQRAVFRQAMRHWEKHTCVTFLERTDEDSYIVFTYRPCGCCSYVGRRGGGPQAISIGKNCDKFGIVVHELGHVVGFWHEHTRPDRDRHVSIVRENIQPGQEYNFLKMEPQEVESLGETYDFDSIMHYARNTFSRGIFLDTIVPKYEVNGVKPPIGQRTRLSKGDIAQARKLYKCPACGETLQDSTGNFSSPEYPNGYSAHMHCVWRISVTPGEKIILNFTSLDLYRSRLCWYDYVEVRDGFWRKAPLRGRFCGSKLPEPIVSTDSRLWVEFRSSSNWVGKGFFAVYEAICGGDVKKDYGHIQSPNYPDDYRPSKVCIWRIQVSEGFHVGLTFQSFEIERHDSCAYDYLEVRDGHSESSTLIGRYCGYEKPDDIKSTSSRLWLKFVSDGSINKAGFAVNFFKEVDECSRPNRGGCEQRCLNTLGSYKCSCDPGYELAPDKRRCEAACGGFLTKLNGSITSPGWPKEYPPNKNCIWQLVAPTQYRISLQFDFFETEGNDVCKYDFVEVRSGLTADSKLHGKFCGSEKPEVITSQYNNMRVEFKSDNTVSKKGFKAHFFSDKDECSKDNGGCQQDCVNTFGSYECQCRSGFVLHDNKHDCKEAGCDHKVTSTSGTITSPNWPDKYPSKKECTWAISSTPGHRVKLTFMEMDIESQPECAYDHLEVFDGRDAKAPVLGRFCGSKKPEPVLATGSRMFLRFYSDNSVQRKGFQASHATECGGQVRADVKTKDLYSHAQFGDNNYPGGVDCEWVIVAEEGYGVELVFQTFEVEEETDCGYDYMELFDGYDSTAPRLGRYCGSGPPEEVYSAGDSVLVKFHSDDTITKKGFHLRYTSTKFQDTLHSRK
Protocol: In order to determine potency of PCP inhibitors a fluorogenic PCP cleavage assay was used. This assay is based on the template of Beekman et al. (FEBS Letters (1996), 390: 221–225) using a fluorogenic substrate. The substrate (Dabcyl-Arg-Tyr-Tyr-Arg-Ala-Asp-Asp-Ala-Asn-Val-Glu(EDANS)-NH2) contains the cleavage site of human PCP (Hojima et al., J Biol Chem (1985), 260:15996–16003). […]. The assay was performed in 96-well black fluorimeter plates and fluorescence was read continuously in a fluorimeter over 2.5 hours (λex=340 nm, λem=485 nm) at a constant 37° C. with shaking. Release of the fluorogenic signal was in linear correlation to PCP activity. Reading of the mean velocity from 30 min after start of experiment until 2.5 hours was calculated by the Biolise software. IC50 values were calculated by plotting % inhibition values against compound concentration using Tessela add in for Excel spreadsheet.

PCP = settings: cited from earlier work

Row | Structure (SMILES) | melting point | further results
1 | O=C(C[C@@H](CCCC1CCCCC1)c1nc(CNS(=O)(=O)c2ccccn2)no1)NO [Example 6, (3 R)-6-cyclohexyl-N-hydroxy-3-(3-[(2-pyridinylsulfonyl)amino]methyl-1,2,4-oxadiazol-5-yl)hexanamide] | – | IC50 (human PCP): 107 nM
2 | Cc1oc([C@H](CCCC2CCCCC2)CC(=O)NO)nc1CNC1CCOCC1 [Example 71, (3R)-6-cyclohexyl-N-hydroxy-3-{5-methyl-4-[(tetrahydro-2H-pyran-4-ylamino)methyl]-1,3-oxazol-2-yl}hexanamide] | 108 to 110 °C | –
3 | O=C(C[C@@H](CCCC1CCCCC1)c1nc(CNC2CCCCC2)no1)NO [Example 41, (3R)-6-cyclohexyl-3-{3-[(cyclohexylamino)methyl]-1,2,4-oxadiazol-5-yl}-N-hydroxyhexanamide] | 127 °C | –
4 | O=C(C[C@@H](CCCC1CCCCC1)c1nc(CNC2CCCC2)co1)NO [Example 69, (3R)-6-cyclohexyl-3-{4-[(cyclopentylamino)methyl]-1,3-oxazol-2-yl}-N-hydroxyhexanamide] | 124 to 127 °C | –
5 | O=C(C[C@@H](CCCC1CCCCC1)c1nc(CNC2CCC2)no1)NO [Example 39, (3R)-3-{3-[(cyclobutylamino)methyl]-1,2,4-oxadiazol-5-yl}-6-cyclohexyl-N-hydroxyhexanamide] | 82 to 83.9 °C | –
6 | O=C(C[C@@H](CCCC1CCCCC1)c1nc(CN2CCC(O)CC2)no1)NO [Example 64, (3R)-6-cyclohexyl-N-hydroxy-3-{3-[(4-hydroxy-1-piperidinyl)methyl]-1,2,4-oxadiazol-5-yl}hexanamide] | 85 °C | –
7 | O=C(C[C@@H](CCCC1CCCCC1)c1nc(CNC2CCOCC2)no1)NO [Example 50, (3R)-6-cyclohexyl-N-hydroxy-3-{3-[(tetrahydro-2H-pyran-4-ylamino)methyl]-1,2,4-oxadiazol-5-yl}hexanamide] | 108.9 to 110.3 °C | –
8 | CCNCc1noc([C@H](CCCC2CCCCC2)CC(=O)NO)n1 [Example 32, (3R)-6-cyclohexyl-3-{3-[(ethylamino)methyl]-1,2,4-oxadiazol-5-yl}-N-hydroxyhexanamide] | 69.4 to 71.4 °C | –
9 | CC(C)(C)NS(=O)(=O)NCc1noc([C@H](CCCC2CCCCC2)CC(=O)NO)n1 [Example 17, (3 R)-3-[3-({[(tert-butylamino)sulfonyl]amino}methyl)-1,2,4-oxadiazol-5-yl]-6-cyclohexyl-N-hydroxyhexanamide] | – | IC50 (human PCP): 98 nM
10 | CCCNCc1noc([C@H](CCCC2CCCCC2)CC(=O)NO)n1 [Example 33, (3R)-6-cyclohexyl-N-hydroxy-3-{3-[(propylamino)methyl]-1,2,4-oxadiazol-5-yl}hexanamide] | 90.4 to 91.8 °C | –
11 | O=C(C[C@@H](CCCC1CCCCC1)c1nc(CN2CCOCC2)no1)NO [Example 65, (3R)-6-cyclohexyl-N-hydroxy-3-[3-(4-morpholinylmethyl)-1,2,4-oxadiazol-5-yl]hexanamide] | 138 to 139 °C | –
12 | O=C(C[C@@H](CCCC1CCCCC1)c1nc(CN2CCOCC2)co1)NO [Example 70, (3R)-6-cyclohexyl-N-hydroxy-3-[4-(4-morpholinylmethyl)-1,3-oxazol-2-yl]hexanamide] | 117 to 119 °C | –
13 | Cc1oc([C@H](CCCC2CCCCC2)CC(=O)NO)nc1CN1CCOCC1 [Example 72, (3R)-6-cyclohexyl-N-hydroxy-3-[5-methyl-4-(4-morpholinylmethyl)-1,3-oxazol-2-yl]hexanamide] | – | IC50 (human PCP): 37 nM
14 | CCC(CC)NCc1noc([C@H](CCCC2CCCCC2)CC(=O)NO)n1 [Example 37, (3R)-6-cyclohexyl-3-(3-{[(1-ethylpropyl)amino]methyl}-1,2,4-oxadiazol-5-yl)-N-hydroxyhexanamide] | 102.7 to 104.3 °C | –
15 | [Cl-].[Na+] [NaCl] | – | activity of PCP, of that observed with the standard assay concentration of 0.15M (PCP; 0.2M NaCl): 66%; activity of PCP, of that observed with the standard assay concentration of 0.15M (PCP; 0.3M NaCl): 38%; activity of PCP, of that observed with the standard assay concentration of 0.15M (PCP; 0.5M NaCl): 25%
16 | COCCCNCc1noc([C@H](CCCC2CCCCC2)CC(=O)NO)n1 [Example 45, (3R)-6-cyclohexyl-N-hydroxy-3-(3-{[(3-methoxypropyl)amino]methyl}-1,2,4-oxadiazol-5-yl)hexanamide] | 60 °C | –
17 | CC(C)CNCc1noc([C@H](CCCC2CCCCC2)CC(=O)NO)n1 [Example 35, (3R)-6-cyclohexyl-N-hydroxy-3-{3-[(isobutylamino)methyl]-1,2,4-oxadiazol-5-yl}hexanamide] | 97.8 to 99 °C | –
